# According to ChEMBL document CHEMBL1146347, “Carinatumins A-C, new alkaloids from Lycopodium carinatum inhibiting acetylcholinesterase” (Bioorg Med Chem, 2007):
# Molecular target: T1, Acetylcholinesterase (Bos taurus, UniProt P23795)
# T1 sequence (P23795 whole entry): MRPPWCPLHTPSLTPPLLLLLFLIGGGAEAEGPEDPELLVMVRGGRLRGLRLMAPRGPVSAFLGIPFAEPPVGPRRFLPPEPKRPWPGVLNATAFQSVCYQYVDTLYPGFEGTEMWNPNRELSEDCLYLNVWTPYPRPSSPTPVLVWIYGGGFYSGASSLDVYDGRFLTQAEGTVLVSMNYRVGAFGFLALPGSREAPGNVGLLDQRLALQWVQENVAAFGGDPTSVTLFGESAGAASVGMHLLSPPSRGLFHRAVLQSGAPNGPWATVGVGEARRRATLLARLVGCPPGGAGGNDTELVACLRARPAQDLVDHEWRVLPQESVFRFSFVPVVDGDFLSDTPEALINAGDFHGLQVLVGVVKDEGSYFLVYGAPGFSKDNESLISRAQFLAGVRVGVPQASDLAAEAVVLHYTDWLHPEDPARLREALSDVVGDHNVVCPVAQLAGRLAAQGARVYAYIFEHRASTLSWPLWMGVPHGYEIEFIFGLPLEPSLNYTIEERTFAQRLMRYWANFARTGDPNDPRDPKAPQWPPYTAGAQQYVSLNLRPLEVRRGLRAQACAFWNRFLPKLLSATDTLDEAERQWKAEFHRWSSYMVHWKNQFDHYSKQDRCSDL
# Test: Inhibition of bovine erythrocyte acetylcholinesterase
row,SMILES,IC50
1,CC1=C[C@H]2Cc3[nH]c(=O)ccc3[C@]3(C1)NCC[C@@H](O)[C@H]23 [CARINATUMINS B (2)],7 µM
2,CC1=C[C@H]2Cc3[nH]c(=O)ccc3[C@](N)(C1)/C2=C/CO,4.6 µM
3,C[C@H]1C[C@@H](CC2=[N+]([O-])CCCC2)[C@@H]2CCCN[C@H]2C1,> 100 µM
